CC12CCC(CC1=O)C2(C)C (stereo not drawn)
Conditions	solubility (mole fraction)
in acetone, 303.15 K	0.553
in acetone, 308.15 K	0.571
in acetone, 313.55 K	0.594
in acetone, 319.25 K	0.614
in acetone, 323.15 K	0.627
in ethanol, 303.15 K	0.365
in ethanol, 308.15 K	0.396
in ethanol, 313.15 K	0.412
in ethanol, 318.15 K	0.451
in ethanol, 322.95 K	0.508
in ethanol, 327.95 K	0.538
in ethanol, 333.35 K	0.588
in ethanol, 338.15 K	0.63
in ethanol, 343.15 K	0.699
in p-cymene, 303.85 K	0.58
in p-cymene, 308.05 K	0.589
in p-cymene, 313.15 K	0.601
in p-cymene, 317.95 K	0.609
in p-cymene, 323.65 K	0.624
in p-cymene, 328.15 K	0.631
in p-cymene, 333.35 K	0.641
in p-cymene, 337.95 K	0.652
in p-cymene, 343.05 K	0.664
in p-xylene, 303.05 K	0.6
in p-xylene, 308.15 K	0.637
in p-xylene, 313.15 K	0.66
in p-xylene, 318.15 K	0.683
in p-xylene, 323.25 K	0.714
in p-xylene, 327.85 K	0.736
in p-xylene, 328.15 K	0.739
in p-xylene, 333.15 K	0.77
in p-xylene, 338.35 K	0.795
in p-xylene, 343.15 K	0.824
